Assay results taken from patent publication US20140242200A1, “WATER-SOLUBLE EXTRACTS OF ARTEMISIA DRACUNCULUS (TARRAGON) FOR IMPROVEMENT OF GLUCOSE METABOLISM” (Finzelberg GmbH & Co. KG, priority 2008, published 2014).

Tests used:
[1] = system: Male non-fasted Wistar rats; experiment: Basal blood glucose levels in rats (no glucose challenge); assay type: in vivo; conditions: oral treatment, extracts 6 mg/kg, blood samples 0-180 min, one-way ANOVA, Student-Newman-Keuls
Experimental: (§1) A common way of testing for an effect of extracts or new chemical entities on blood glucose levels is the glucose challenge test (Verspohl, E. J.: Recommended testing in diabetes research. Planta Med 68 (7): 581-90, 2002) in which rats are given the extract, control, or a known antidiabetic substance with (challenge) and without (basal) an intraperitoneal (i.p.) dose of glucose. The extracts are given orally 30 min. before the glucose challenge. Blood samples are taken sublingual at time points 0, 15, 30, 60, and 120 minutes for the glucose challenge or 0, 30, 60, 120, and 180 minutes for basal blood glucose levels. This sampling scheme ensures to monitor both effects of extracts on basal blood glucose levels over a longer time period and the blood glucose levels after glucose challenge closely enough. […]
(§2) Blood was drawn at the appropriate time points from the sublingual vein after a short halothane anesthesia and stored at 4° C. with addition of heparin. […] The supernatant plasma was taken and analyzed using an autoanalyzer (Merck, Darmstadt). […]
(§3) Both percent and AUC data were analyzed by one-way ANOVA and Student-Newman-Keuls Multiple Comparison Test using Graphpad 4.0 Software, San Diego, USA. The AUC (area under the curve) was calculated using the trapezoidal rule without extensions beyond the last time point measured.

[2] = system: Male non-fasted Wistar rats; experiment: Glucose challenge test (i.p. glucose) in rats; assay type: in vivo; conditions: oral treatment 30 min before i.p. glucose; extracts 6 mg/kg; blood samples 0-120 min; one-way ANOVA, Student-Newman-Keuls
Experimental: as §1, §2, §3

SMILES | effect on basal blood glucose levels [1] | effect on lowering the blood glucose levels following the i.p. glucose challenge [2]
N[C@@H](CC(=O)N1CCn2c(nnc2C(F)(F)F)C1)Cc1cc(F)c(F)cc1F [sitagliptin] | significant effect | significant effect
COc1ccc(Cl)cc1C(=O)NCCc1ccc(S(=O)(=O)NC(=O)NC2CCCCC2)cc1 [glyburide] | significant effect | significant effect
